# Bridge positions count the residues as written; N and C are the ends. Ends that are not written are not given here.
# Test system: isolated rat aortic strips
# Experiment: Neutralization experiment: contractile response of isolated rat aortic strips to ET-1
# Details: synthetic ET-1 alone
# Description: Contractile responses of rat aortic strips were performed as previously reported (Toda, S., Nakajima, S., Miyazaki, M., Ueda, M.: Vasodilation induced by pinacidil in dogs _ comparison with hydralizine and nifedipine. J. Cardiovasc. Pharmacol. 1985;7:1118-1126). Aortic strips were incubated in an organ bath perfused at 37°C with balanced salt solution containing 139.7 mEq Na⁺, 5.4 mEq K⁺, 2.2 mEq Ca²⁺, 1.0 mEq Mg²⁺, 131.5 mEq Cl⁻ and 20 mEq HCO₃⁻. Purified monoclonal antibody (0.05 µg/ml - 5 µg/ml) was added 3 min before the ET-1 administration.
substance,measurement,value
"ET-1: endothelin-1, purchased from Peptide Institute Inc.; original form isolated from culture medium of porcine aortic endothelial cells (CSCSSLMDKECVYFCHLDIIW; disulfide 1-15, 3-11; ends not checked; UniProt P05305 53-73, looked up)",vasoconstriction,induced a vasoconstriction in isolated rat aortic strips in a dose-dependent manner
